Data from patent US8158636B2, “Compounds and methods for kinase modulation, and indications therefor” (Plexxikon Inc., priority 2008, dated 2012).

Key:
Assay type in all cases: biochemical
Kdr = Kdr (Homo sapiens, UniProt P35968); test: Kinase activity assay, Kdr; conditions: Table 1i; read-out: activity toward kinase Kdr, IC50
Description: (§1) Assays for the activity of kinases, including, but not limited to, Fms, Kit, B-Raf, B-Raf V600E, c-Raf-1, and TrkA are known in the art, for example as described in US Patent Publication Number US20070032519 and U.S. patent application Ser. No. 11/473,347 (see also, PCT publication WO2007002433), the disclosures of which are hereby incorporated by reference with respect to such assays.

Fms = Fms (Homo sapiens, UniProt P07333); test: Kinase activity assay, Fms; conditions: Table 1h; read-out: activity toward kinase Fms, IC50
Description: as §1

C-Raf = C-Raf (Homo sapiens, UniProt P04049); test: Kinase activity assay, C-Raf; conditions: Table 1d; read-out: activity toward kinase C-Raf, IC50
Sequence of C-Raf (P04049 whole entry): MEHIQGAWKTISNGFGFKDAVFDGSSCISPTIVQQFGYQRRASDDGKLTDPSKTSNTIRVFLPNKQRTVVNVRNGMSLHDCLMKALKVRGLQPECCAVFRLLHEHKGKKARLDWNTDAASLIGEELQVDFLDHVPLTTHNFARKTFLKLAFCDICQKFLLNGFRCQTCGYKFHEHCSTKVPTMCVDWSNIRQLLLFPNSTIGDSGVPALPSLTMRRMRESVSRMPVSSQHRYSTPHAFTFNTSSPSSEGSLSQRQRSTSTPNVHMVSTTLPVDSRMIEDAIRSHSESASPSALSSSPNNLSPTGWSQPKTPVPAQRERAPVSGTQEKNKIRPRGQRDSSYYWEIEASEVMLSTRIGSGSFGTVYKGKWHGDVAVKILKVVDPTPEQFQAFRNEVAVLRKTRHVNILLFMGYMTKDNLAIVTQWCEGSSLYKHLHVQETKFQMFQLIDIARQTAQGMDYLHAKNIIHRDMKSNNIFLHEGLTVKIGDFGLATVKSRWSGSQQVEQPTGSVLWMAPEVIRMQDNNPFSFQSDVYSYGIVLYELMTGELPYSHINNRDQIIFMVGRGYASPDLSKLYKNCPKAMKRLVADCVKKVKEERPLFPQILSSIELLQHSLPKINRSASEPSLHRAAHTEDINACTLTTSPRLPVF
Description: as §1

Kit = Kit (Homo sapiens, UniProt P10721); test: Kinase activity assay, Kit; conditions: Table 1j; read-out: activity toward kinase Kit, IC50
Sequence of Kit (P10721 26-976): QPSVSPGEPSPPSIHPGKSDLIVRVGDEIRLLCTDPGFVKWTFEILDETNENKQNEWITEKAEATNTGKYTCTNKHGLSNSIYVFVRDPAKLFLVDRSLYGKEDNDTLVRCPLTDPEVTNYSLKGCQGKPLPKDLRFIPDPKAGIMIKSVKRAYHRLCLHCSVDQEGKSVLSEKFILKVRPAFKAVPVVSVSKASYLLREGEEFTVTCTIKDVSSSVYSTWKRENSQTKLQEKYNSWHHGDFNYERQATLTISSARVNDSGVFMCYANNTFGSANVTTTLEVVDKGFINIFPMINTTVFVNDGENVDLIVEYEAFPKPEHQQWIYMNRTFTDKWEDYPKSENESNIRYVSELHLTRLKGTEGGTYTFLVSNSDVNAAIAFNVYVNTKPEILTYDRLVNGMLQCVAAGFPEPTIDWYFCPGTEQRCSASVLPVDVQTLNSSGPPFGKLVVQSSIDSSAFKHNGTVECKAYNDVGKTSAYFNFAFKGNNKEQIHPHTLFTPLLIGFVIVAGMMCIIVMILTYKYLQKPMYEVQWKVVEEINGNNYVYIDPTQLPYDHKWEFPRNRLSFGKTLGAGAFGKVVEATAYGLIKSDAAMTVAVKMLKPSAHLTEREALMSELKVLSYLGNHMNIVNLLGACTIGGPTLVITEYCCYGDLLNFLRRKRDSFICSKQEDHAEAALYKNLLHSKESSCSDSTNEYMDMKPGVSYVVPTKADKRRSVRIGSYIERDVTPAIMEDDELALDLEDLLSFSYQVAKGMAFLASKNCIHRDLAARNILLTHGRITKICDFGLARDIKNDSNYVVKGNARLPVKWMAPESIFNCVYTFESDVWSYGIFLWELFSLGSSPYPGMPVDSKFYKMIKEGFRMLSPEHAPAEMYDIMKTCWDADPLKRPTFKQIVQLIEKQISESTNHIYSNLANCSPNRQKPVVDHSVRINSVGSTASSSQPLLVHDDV
Description: as §1

B-Raf V600E = B-Raf V600E (Homo sapiens, UniProt P15056, V600E); test: Kinase activity assay, B-Raf V600E; conditions: Table 1c; read-out: activity toward kinase B-Raf V600E, IC50
Sequence of B-Raf V600E (P15056 whole entry V600E): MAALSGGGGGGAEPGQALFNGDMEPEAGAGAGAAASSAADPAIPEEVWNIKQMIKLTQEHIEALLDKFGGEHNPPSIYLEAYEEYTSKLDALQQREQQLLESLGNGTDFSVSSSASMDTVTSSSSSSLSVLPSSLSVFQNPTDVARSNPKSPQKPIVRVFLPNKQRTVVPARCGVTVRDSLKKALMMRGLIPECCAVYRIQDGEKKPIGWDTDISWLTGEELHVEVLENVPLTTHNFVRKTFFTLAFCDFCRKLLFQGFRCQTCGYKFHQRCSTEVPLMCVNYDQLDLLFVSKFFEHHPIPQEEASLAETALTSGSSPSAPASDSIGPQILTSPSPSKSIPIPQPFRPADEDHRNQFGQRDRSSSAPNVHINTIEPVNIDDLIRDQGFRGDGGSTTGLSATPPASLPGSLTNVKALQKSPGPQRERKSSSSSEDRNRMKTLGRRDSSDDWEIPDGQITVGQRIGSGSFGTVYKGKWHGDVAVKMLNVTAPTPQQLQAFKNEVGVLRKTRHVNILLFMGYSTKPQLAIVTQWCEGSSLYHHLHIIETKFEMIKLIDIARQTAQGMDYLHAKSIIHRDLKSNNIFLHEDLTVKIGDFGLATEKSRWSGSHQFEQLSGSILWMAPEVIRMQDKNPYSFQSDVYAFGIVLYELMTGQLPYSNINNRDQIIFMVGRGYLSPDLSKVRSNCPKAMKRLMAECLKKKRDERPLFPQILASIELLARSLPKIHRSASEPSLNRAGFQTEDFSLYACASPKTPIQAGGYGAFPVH
Description: as §1

TrkA = TrkA (Homo sapiens, UniProt P04629); test: Kinase activity assay, TrkA; conditions: Table 1m; read-out: activity toward kinase TrkA, IC50
Sequence of TrkA (P04629 33-796): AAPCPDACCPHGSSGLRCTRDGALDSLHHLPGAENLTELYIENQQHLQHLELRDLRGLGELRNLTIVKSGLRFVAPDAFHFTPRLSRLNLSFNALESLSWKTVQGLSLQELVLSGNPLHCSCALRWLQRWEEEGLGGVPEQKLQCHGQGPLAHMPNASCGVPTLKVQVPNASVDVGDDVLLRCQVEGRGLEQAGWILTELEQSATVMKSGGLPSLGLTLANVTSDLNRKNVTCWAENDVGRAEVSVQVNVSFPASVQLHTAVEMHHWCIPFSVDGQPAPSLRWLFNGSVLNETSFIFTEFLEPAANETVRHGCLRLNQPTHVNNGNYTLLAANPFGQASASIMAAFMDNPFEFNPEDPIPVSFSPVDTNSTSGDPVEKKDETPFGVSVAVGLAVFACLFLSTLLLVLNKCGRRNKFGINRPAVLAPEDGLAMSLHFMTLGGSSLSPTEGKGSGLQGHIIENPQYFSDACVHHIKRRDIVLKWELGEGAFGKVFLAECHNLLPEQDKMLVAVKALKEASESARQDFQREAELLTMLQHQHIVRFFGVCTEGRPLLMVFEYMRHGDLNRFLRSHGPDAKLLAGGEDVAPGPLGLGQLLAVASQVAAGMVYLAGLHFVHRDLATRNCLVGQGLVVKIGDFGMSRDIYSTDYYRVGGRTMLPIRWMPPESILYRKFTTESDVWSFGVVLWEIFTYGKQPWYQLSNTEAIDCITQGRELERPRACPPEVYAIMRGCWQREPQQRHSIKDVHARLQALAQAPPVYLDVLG
Description: as §1

Measured: IC50

Sequence of Kdr (P35968 20-1356): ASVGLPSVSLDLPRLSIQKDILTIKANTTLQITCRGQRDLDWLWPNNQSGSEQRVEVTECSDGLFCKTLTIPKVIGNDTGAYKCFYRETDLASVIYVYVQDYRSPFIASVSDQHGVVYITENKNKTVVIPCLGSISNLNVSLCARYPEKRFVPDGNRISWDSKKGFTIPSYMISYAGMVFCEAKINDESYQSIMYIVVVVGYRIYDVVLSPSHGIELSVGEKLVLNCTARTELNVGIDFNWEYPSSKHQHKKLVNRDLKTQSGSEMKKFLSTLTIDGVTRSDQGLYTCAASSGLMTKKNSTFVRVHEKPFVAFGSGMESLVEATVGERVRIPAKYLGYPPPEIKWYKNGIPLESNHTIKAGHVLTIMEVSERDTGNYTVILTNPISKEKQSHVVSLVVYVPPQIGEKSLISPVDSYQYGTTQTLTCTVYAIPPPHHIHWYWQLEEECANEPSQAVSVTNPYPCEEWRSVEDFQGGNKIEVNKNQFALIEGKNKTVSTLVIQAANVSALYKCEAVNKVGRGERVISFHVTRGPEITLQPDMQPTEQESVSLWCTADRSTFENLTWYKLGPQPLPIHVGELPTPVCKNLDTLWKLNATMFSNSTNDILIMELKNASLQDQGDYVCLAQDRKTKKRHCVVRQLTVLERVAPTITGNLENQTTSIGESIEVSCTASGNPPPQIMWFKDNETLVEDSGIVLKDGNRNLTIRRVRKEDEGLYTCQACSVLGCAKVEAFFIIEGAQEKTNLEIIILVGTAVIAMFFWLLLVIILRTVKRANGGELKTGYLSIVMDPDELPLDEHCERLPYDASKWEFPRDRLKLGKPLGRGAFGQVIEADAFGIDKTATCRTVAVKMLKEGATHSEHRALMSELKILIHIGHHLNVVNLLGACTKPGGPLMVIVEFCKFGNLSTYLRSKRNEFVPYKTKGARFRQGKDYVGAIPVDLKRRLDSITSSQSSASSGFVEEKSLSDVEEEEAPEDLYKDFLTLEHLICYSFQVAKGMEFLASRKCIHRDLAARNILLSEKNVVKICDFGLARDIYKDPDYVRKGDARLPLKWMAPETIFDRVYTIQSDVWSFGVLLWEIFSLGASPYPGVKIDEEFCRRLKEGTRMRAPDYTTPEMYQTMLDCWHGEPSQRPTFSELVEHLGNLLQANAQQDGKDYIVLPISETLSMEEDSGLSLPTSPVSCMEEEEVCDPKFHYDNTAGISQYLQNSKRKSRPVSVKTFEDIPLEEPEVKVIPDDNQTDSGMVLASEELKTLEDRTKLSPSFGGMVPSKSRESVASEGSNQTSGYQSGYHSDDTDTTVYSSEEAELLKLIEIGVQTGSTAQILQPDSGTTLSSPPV

COc1ncc(F)cc1CNc1ncc(Cc2c[nH]c3ncnc(OC)c23)cn1 [P-0093, (5-Fluoro-2-methoxy-pyridin-3-ylmethyl)-[5-(4-methoxy-7H-pyrrolo[2,3-d]pyrimidin-5-ylmethyl)-pyrimidin-2-yl]-amine]
≤ 10 µM: Kdr | Fms | C-Raf | Kit

Fc1nc(NCc2ccc(N3CCOCC3)nc2)ccc1Cc1c[nH]c2ncncc12 [P-0039, [6-Fluoro-5-(7H-pyrrolo[2,3-d]pyrimidin-5-ylmethyl)-pyridin-2-yl]-(6-morpholin-4-yl-pyridin-3-ylmethyl)-amine]
≤ 10 µM: Kdr | Fms | C-Raf | B-Raf V600E

Fc1cc(Cl)cc(CNc2ccc(Cc3c[nH]c4ncncc34)c(F)n2)c1 [P-0067, (3-Chloro-5-fluoro-benzyl)-[6-fluoro-5-(7H-pyrrolo[2,3-d]pyrimidin-5-ylmethyl)-pyridin-2-yl]-amine]
not listed: C-Raf
≤ 10 µM: all other assays above

Cc1cc(C)cc(CNc2ccc(Cc3c[nH]c4ncncc34)c(F)n2)c1 [P-0063, (3,5-Dimethyl-benzyl)-[6-fluoro-5-(7H-pyrrolo[2,3-d]pyrimidin-5-ylmethyl)-pyridin-2-yl]-amine]
not listed: C-Raf
≤ 10 µM: all other assays above

CC(C)Oc1ncccc1CNc1ccc(Cc2c[nH]c3ncncc23)c(F)n1 [P-0057, [6-Fluoro-5-(7H-pyrrolo[2,3-d]pyrimidin-5-ylmethyl)-pyridin-2-yl]-(2-isopropoxy-pyridin-3-ylmethyl)-amine]
not listed: B-Raf V600E
≤ 10 µM: all other assays above

Fc1nc(NCc2cncc(Cl)c2)ccc1Cc1c[nH]c2ncncc12 [P-0044, (5-Chloro-pyridin-3-ylmethyl)-[6-fluoro-5-(7H-pyrrolo[2,3-d]pyrimidin-5-ylmethyl)-pyridin-2-yl]-amine]
≤ 10 µM: Kdr | Fms | C-Raf | B-Raf V600E

FC(F)(F)c1ccc(CNc2ccc(Cc3c[nH]c4ncncc34)cn2)cn1 [P-0004, [5-(7H-Pyrrolo[2,3-d]pyrimidin-5-ylmethyl)-pyridin-2-yl]-(6-trifluoromethyl-pyridin-3-ylmethyl)-amine]
not listed: TrkA
≤ 10 µM: all other assays above

Fc1ccc(CNc2ccc(Cc3c[nH]c4ncncc34)c(F)n2)nc1 [P-0041, (5-Fluoro-pyridin-2-ylmethyl)-[6-fluoro-5-(7H-pyrrolo[2,3-d]pyrimidin-5-ylmethyl)-pyridin-2-yl]-amine]
not listed: TrkA
≤ 10 µM: all other assays above

COc1ncc(CNc2ccc(Cc3c[nH]c4ncnc(OC)c34)c(F)n2)cc1F [P-0091, (5-Fluoro-6-methoxy-pyridin-3-ylmethyl)-[6-fluoro-5-(4-methoxy-7H-pyrrolo[2,3-d]pyrimidin-5-ylmethyl)-pyridin-2-yl]-amine]
not listed: C-Raf
≤ 10 µM: all other assays above
